# pIC50: −log10 of the molar value. Where two headings read alike, the source gives them in different places.
# Assays:
# IL-6 [1] = test: Optimization of stimulator and duration: IL-6 production; type: cell-based, human
# Text: In order to evaluate the time-dependent inflammatory responses, we measured interleukin-6 (IL-6) production within 48 hr post-LPS treatment.
# IL-6 [2] = test: IL-6 ELISA in HIVIL (iKCs co-cultured with iHeps, LPS, 48 hr); type: cell-based, human; conditions: HIVIL; for pIC50: Homo sapiens, LPS, 48 hr
# Text: (§1) Human iPSC cell line iPS (IMR90)-4 was purchased from WiCell Research Institute (Madison, WI), and maintained with a feeder-free method according to the instruction from […] Technologies (Vancouver, BC, Canada). The protocol of differentiation towards iKCs and iHeps as described previously with slight modification ([Tasnim et al., 2019]; [Cai et al., 2012]), respectively. […] More details are provided in Supplementary Methods. After differentiation, iKCs was harvested using 0.05 % trypsin-EDTA (Gibco, Waltham, Massachusetts, USA), while iHeps were dissociated with TrypLE^TM (Gibco). iHep suspension was further filtered through a 40 µm cell strainer to remove extracellular matrix clumps. Cell suspension was centrifuged at 1000 rpm for 5 min. For co-culture set up, tissue culture plates were coated with Rat tail collagen I (Gibco) diluted 100-fold in 0.02 N acetic acid, and incubated at 37 °C for 1 h and washed 3 times with PBS. According to the protocol optimized by [Tasnim et al. (2019)], iKCs was firstly seeded at a density of 14,000 per well on 96-well plate with Advanced DMEM (plus supplements) containing 5 % FBS. On the following day, iHeps were added at a density of 35,000 per well in Williams’ Medium E (plus supplements) (iHep: iKCs ratio = 2.5: 1). This reflects the physiological ratio of these cells in vivo under inflammatory conditions ([Tasnim et al., 2021]). Fresh media containing drugs was applied to co-cultures the next day. 50,000 cells were seeded to establish iHeps monoculture. THP-1 cells were kindly obtained from Dr. Eliza Fong and cultured as described by [Zeng et al. (2015)]. Details provided in Supplementary Methods.
# (§2) Stock solutions of drugs were prepared in dimethyl sulfoxide (DMSO) and dissolved in medium prior to use. […] For these two drugs, the highest DMSO concentration was 1 %. Supernatant was collected at 48 hr for measurement of cytokines, and remaining cells were subjected to viability assay prior to lysis for RNA extraction.
# (§3) Enzyme-linked immunosorbent assay (ELISA) for measurement of cytokines: Interleukin-6 (IL-6), interleukin-10 (IL-10) and tumor necrosis factor alpha (TNFα) levels in the media were measured using the corresponding human-based ELISA kits (Abcam, Cambridge, United Kingdom) according to manufacturer’s instructions. The cytokine production from dosed cells was normalized with the viability value from the same well. The normalized cytokine level upon drug treatments was further presented as percentage of DMSO+LPS. […] This normalization approach has been used in previous studies (Rose et al. 2016).
# TNFα [3] = test: TNFα ELISA in HIVIL (iKCs co-cultured with iHeps, LPS, 48 hr); type: cell-based, human; conditions: for TNFα induction: result in words
# Text: as §1, §2, §3
# [4] = tested on: HIVIL (iKCs co-cultured with iHeps); test: AlamarBlue cell viability in HIVIL; conditions: Homo sapiens, 48 h, read-out: IC50: viability
# Protocol: as §2
# IL-6 [5] = test: IL-6 production of iKC mono-culture; type: cell-based, human; conditions: result in words
# Protocol: (§4) Enzyme-linked immunosorbent assay (ELISA) for measurement of cytokines: Interleukin-6 (IL-6), interleukin-10 (IL-10) and tumor necrosis factor alpha (TNFα) levels in the media were measured using the corresponding human-based ELISA kits (Abcam, Cambridge, United Kingdom) according to manufacturer’s instructions. The cytokine production from dosed cells was normalized with the viability value from the same well. The normalized cytokine level upon drug treatments was further presented as percentage of DMSO+LPS. Normalization to viability per well ensures that any changes in cytokines are not due to changes in cell numbers upon drug treatment and normalization to DMSO+LPS allows better comparison between different batches of experiments. This normalization approach has been used in previous studies (Rose et al. 2016).
# IL-6 [6] = tested on: IL-6; parameters: method as in Steuerwald et al. 2013; Mahdy et al. 2002; Kang et al. 2001; conditions: ref Steuerwald et al. 2013; Mahdy et al. 2002; Kang et al. 2001; cited from earlier work
# TNFα [7] = conditions: ref Shaw et al. 2010; Zou et al. 2009; Bekker et al. 2012; Gandhi et al. 2013; Heidari et al. 2019; cited from earlier work
# [8] = FDA-labeling information; ref Chen et al. 2016; cited from earlier work
# [9] = binary classification by human hepatotoxicity; ref Thakkar et al. 2020; cited from earlier work
# [10] = Cammett et al. 2009, Mendes et al. 2014, cited from earlier work
# IL-6 [11] = test: IL-6 response in HIVIL using THP-1 macrophages co-cultured with iHeps; type: cell-based, human; conditions: HIVIL with THP-1 instead of iKCs, result in words
# Text: Human iPSC cell line iPS (IMR90)-4 was purchased from WiCell Research Institute (Madison, WI), and maintained with a feeder-free method according to the instruction from […] Technologies (Vancouver, BC, Canada). The protocol of differentiation towards iKCs and iHeps as described previously with slight modification ([Tasnim et al., 2019]; [Cai et al., 2012]), respectively. The re-optimized protocol to generate iKCs is discussed in Results section. More details are provided in Supplementary Methods. After differentiation, iKCs was harvested using 0.05 % trypsin-EDTA (Gibco, Waltham, Massachusetts, USA), while iHeps were dissociated with TrypLE^TM (Gibco). iHep suspension was further filtered through a 40 µm cell strainer to remove extracellular matrix clumps. Cell suspension was centrifuged at 1000 rpm for 5 min. For co-culture set up, tissue culture plates were coated with Rat tail collagen I (Gibco) diluted 100-fold in 0.02 N acetic acid, and incubated at 37 °C for 1 h and washed 3 times with PBS. According to the protocol optimized by [Tasnim et al. (2019)], iKCs was firstly seeded at a density of 14,000 per well on 96-well plate with Advanced DMEM (plus supplements) containing 5 % FBS. On the following day, iHeps were added at a density of 35,000 per well in Williams’ Medium E (plus supplements) (iHep: iKCs ratio = 2.5: 1). This reflects the physiological ratio of these cells in vivo under inflammatory conditions ([Tasnim et al., 2021]). Fresh media containing drugs was applied to co-cultures the next day. 50,000 cells were seeded to establish iHeps monoculture. THP-1 cells were kindly obtained from Dr. Eliza Fong and cultured as described by [Zeng et al. (2015)]. Details provided in Supplementary Methods.
# THP-1 maintenance and differentiation: THP-1 monocytic lineage was maintained in RPMI 1640 with 10% FBS. For differentiation to macrophages, suspension cells were collected and subjected to 2-day phorbol 12-myristate 13-acetate (PMA) treatment (50 ng/ml), followed by a 1-day PMA-free medium resting. THP-1 macrophages were trypsinzed and used for co-culture as described in Material and methods.
# as §4
# IL-6 [12] = tested on: IL-6; parameters: method as in ref Hassan et al. 2016; Giustarini et al. 2019; Higuchi et al. 2012; Dik et al. 2018; conditions: ref Hassan et al. 2016; Giustarini et al. 2019; Higuchi et al. 2012; Dik et al. 2018; cited from earlier work
# IL-6 [13] = conditions: 858.6 μM, 1 μg/mL of LPS; ref Li et al. 2020; cited from earlier work
# [14] = ref Ho et al. 2015; Kaplowitz 2005; Verma and Kaplowitz 2009; cited from earlier work
# cytokines = tested on: cytokines; parameters: method as in ref Ganey et al. 2004; Honarmand et al. 2012; Manna and Aggarwal 1999; Yao et al. 2004; conditions: ref Ganey et al. 2004; Honarmand et al. 2012; Manna and Aggarwal 1999; Yao et al. 2004; cited from earlier work
# [15] = ref in each cell: Ademisoye et al. 2018, Xu et al. 2008, Agabeyoglu and Incecayir 2009, Rojanasthien et al. 2007, Reunanen et al. 1992, Li et al. 2002, Hong-mei et al. 2013, Bareggi et al. 1987, Jiang et al. 2008
# Protocol for iKCs mono-culture: Cell viability assays: Cell viability was examined with AlamarBlue^TM cell viability assay (Thermo Fisher Scientific Inc.) according to manufacturer’s instructions. Briefly, cells were exposed to AlamarBlue^TM working solution, which was diluted 10-fold using PBS containing 2 mg/mL of glucose, for 1 hour. Color change in the solution was measured using fluorescence (Ex: 530nm, Em: 590nm) in Tecan Microplate Reader M1000 PRO. The viability of dosed cells was presented as percentage of the corresponding vehicle control.
Compound,group by drug-dependent IL-6 production (IL-6 [2]),Reported human responses: IL-6 (IL-6 [6]),DILIrank [8],DILIst [9],"Cmax [10, 15] [µM]",drug-specific IL-6 response with THP-1 macrophages (IL-6 [11]),other results
lipopolysaccharide [LPS],,,,,,,IL-6 production compared to vehicle control (IL-6 [1]; 24 hr post-LPS treatment): 10.15 fold; IL-6 production compared to vehicle control (IL-6 [1]; 48 hr post-LPS treatment): 4.70 fold
"CC1=C(CC(=O)O)c2cc(F)ccc2/C1=C\c1ccc([S+](C)[O-])cc1 (stereo not drawn) [SLD, sulindac]",dose-dependent inhibition,mechanistic IL-6↓ (Kang et al. 2001),most,1,,,reduction of IL-6 (IL-6 [2]): 50%; pIC50 (IL-6 [2]): 3.42; dose at which TNFα induction was observed (TNFα [3]): < 200 µM; pIC50 [4]: 2.69; IL-6 / cytokine production in iKC mono-culture (IL-6 [5]): abolished; toxicity to iKCs mono-culture compared to iHeps mono-culture and HIVIL (iKCs mono-culture): substantially higher toxicity; Reported in-vivo (murine) responses: TNFα (TNFα [7]): TNFα↑ (Zou et al. 2009)
"CCCc1cc(=O)[nH]c(=S)[nH]1 [PTU, propylthiouracil]",dose-dependent inhibition,,most,1,17.6,,pIC50 (IL-6 [2]): 3.59; TNFα induction (TNFα [3]): all concentrations; Cmax ([10]; ref in each cell: Xu et al. 2008): 17.6 µM; Reported in-vivo (murine) responses: TNFα (TNFα [7]): TNFα↑ (Heidari et al. 2019)
"O=C1NC(=O)C(c2ccccc2)(c2ccccc2)N1 [PHT, phenytoin]",,IL-6↑ (Steuerwald et al. 2013),most,1,15.4,failed to replicate IL-6 increases,dose-dependent increase in IL-6 levels over baseline (IL-6 [2]): 1.5- to 2 fold
"NNC(=O)c1ccncc1 [INH, isoniazid]",,IL-6↑ (Steuerwald et al. 2013),most,1,,failed to replicate IL-6 increases,IL-6 induction (IL-6 [2]; all doses tested): at least 1.2 fold; Reported in-vivo (murine) responses: IL-6 (IL-6 [12]): IL-6↑ (Hassan et al. 2016); changes in IL-6 levels (IL-6 [13]): did not show any changes
"NC(=O)c1cnccn1 [PZA, pyrazinamide]",no dose-dependent changes,,less,1,407,,Known immune-mediated effects [14]: ×
"Cc1ccnc2c1NC(=O)c1cccnc1N2C1CC1 [NVP, nevirapine]",dose-dependent inhibition,,most,1,,,pIC50 (IL-6 [2]): 2.97; TNFα induction (TNFα [3]): all concentrations; pIC50 [4]: 2.58; Reported in-vivo (murine) responses: TNFα (TNFα [7]): TNFα↑ (Bekker et al. 2012)
"Nc1nnc(-c2cccc(Cl)c2Cl)c(N)n1 [LTG, lamotrigine]",,IL-6↑(Steuerwald et al. 2013),most,1,9.8,failed to replicate IL-6 increases,dose-dependent increase in IL-6 levels over baseline (IL-6 [2]): 1.5- to 2 fold
"Cc1oncc1C(=O)Nc1ccc(C(F)(F)F)cc1 [LFM, leflunomide]",dose-dependent induction,,most,1,24.8,,increase in IL-6 (IL-6 [2]): 3.1 fold; Reported in-vivo (murine) responses: cytokines (cytokines): cytokines↓ via NF-kB (Manna and Aggarwal 1999; Yao et al. 2004)
"CCN(CC)Cc1cc(Nc2ccnc3cc(Cl)ccc23)ccc1O [AQ, amodiaquine]",,IL-6↑ (Steuerwald et al. 2013),,1,0.1,failed to replicate IL-6 increases,IL-6 induction (IL-6 [2]; 10 μM): 1.47 fold
"NC(=O)N1c2ccccc2C=Cc2ccccc21 [CBZ, carbamazepine]",dose-dependent induction,,most,1,25.3,,increase in IL-6 (IL-6 [2]): 1.7 fold; Reported in-vivo (murine) responses: IL-6 (IL-6 [12]): IL-6↑(Higuchi et al. 2012)
penicillin,no dose-dependent changes,,less,1,,,Known immune-mediated effects [14]: ×
"CN(C/C=C/C#CC(C)(C)C)Cc1cccc2ccccc12 [TBF, terbinafine]",no dose-dependent changes,,most,1,3.4,,Known immune-mediated effects [14]: ×
